Test results published in article PMC12040169 (PLOS Biology, 2025).

Assay: in vitro
Conditions: human, hela cells, % viability

| SMILES | viability at 28.5 h, 10 µM [%] |
| --- | --- |
| COc1ccc(/C=C/c2nc3ccccc3s2)cc1S(=O)(=O)N1CCOCC1 [CBK269373] | 89.9 |
| Cc1ccc(S(=O)(=O)N(CC(=O)Nc2cccnc2)c2cc(C)ccc2C)cc1 [CBK264115] | 61.7 |
| C=CCNC(CC(=O)Nc1ccc(C)c(Cl)c1)C(=O)O (stereo not drawn) [CBK266892] | 92.8 |
| Cc1nc([N+](=O)[O-])c(SCC(O)CN2CCCCC2)[nH]1 (stereo not drawn) [CBK261727] | 88.7 |
| Cn1ccnc1C1(O)CC2CCC(C1)N2C(=O)C1CCCC1 (stereo not drawn) [CBK284052] | 86.4 |
| COc1cccc(CN2CCC3(C2)c2[nH]c4ccccc4c2CCN3Cc2cccc(OC)c2)c1 (stereo not drawn) [CBK059468] | 90.5 |
| CC(C)c1nc(NCCc2nnc3n2CCC3)nc(N(C)C)n1 [CBK306409] | 89.1 |
| C=C1C2(C(=O)N3CCC(Oc4cccnc4)CC3)CCC(C2)C1(C)C (stereo not drawn) [CBK282082] | 107 |
| CCOCCNS(=O)(=O)c1ccc(C(C)(C)CC)cc1 [CBK044655] | 98.2 |
| COc1cc2c(cc1OC)CN(/C=N/c1sc3c(c1C#N)CC(C)(C)NC3(C)C)CC2 [CBK262918] | 105 |
| O=C(O)CCCCCN1C(=O)C2CC=CCC2C1=O (stereo not drawn) [CBK286534] | 82.5 |
| CC1CCN(C(=O)C2CCCCC2C(=O)O)CC1 (stereo not drawn) [CBK028392] | 107 |
| O=c1[nH]c2ncc(-c3ccco3)nc2n1Cc1ccccn1 [CBK064349] | 101 |
| O=C(CSc1nnc(-c2cccc(Br)c2)o1)Nc1cccc([N+](=O)[O-])c1 [CBK264212] | 101 |
| CCc1c(C)nc(N)nc1N1N=C1SC(C(C)=O)C(C)=O [CBK268558] | 99.4 |
| CN(CC1CC1)C(=O)Cn1cnc2c(F)cc(Br)cc2c1=O [CBK305227] | 87.2 |
| COc1ccc(C(C)C)cc1-c1cncc(NC(C)CCCC(C)(C)O)n1 (stereo not drawn) [CBK065521] | 93.3 |
| CCCn1c(O)nnc1-c1cccnc1 [CBK074889] | 86.8 |
| Cc1cc(C)n2c(SCc3ccccc3)nnc2n1 [CBK025780] | 82 |
| O=C1NC/C=C/CC2(CCN(Cc3ccc(Cl)cn3)CC2)C(=O)NCCOc2ccccc21 [CBK292008] | 103 |
| N#Cc1ccccc1-c1ccc(CSc2cccs2)cc1 [CBK002638] | 90.5 |
| CCn1cc(C(=O)O)c(=O)c2cc(F)c(N3CCN(C(=S)Nc4cccc5ccccc45)CC3)cc21 [CBK265809] | 97.4 |

| SMILES | viability at 28.5 h, 10 µM [%] |
| --- | --- |
| Cc1nnc([C@H]2CCN(Cc3ccc4c(c3)OCO4)C2)o1 [CBK289392] | 111 |
| O=C(O)c1ccc2c(c1)C(=O)N(c1ccc3c(c1)Cc1cc(N4C(=O)c5ccc(C(=O)O)cc5C4=O)ccc1-3)C2=O [CBK261333] | 90.5 |
| O=C1CSC2(C(=O)Nc3ccccc32)N1c1ccc([N+](=O)[O-])cc1 (stereo not drawn) [CBK026035] | 93.5 |
| COc1cc(C2CC(=O)Nc3nc(N)[nH]c(=O)c32)ccc1OCc1ccc(F)cc1 (stereo not drawn) [CBK293980] | 84.8 |
| Nc1nncn1C(=O)c1ccccc1SCc1ccccc1 [CBK270120] | 88.9 |
| Cc1cc(NS(=O)(=O)c2ccc(NC(=O)c3cc4ccccc4o3)cc2)no1 [CBK267597] | 88 |
| Brc1c(OCCNCCN2CCOCC2)ccc2ccccc12 [CBK268576G] | 115 |
| COc1cc(CNC(=O)c2cccc(-c3ccc(OC4CCNCC4)cc3)n2)cc(OC)c1OC [CBK126550T] | 87.1 |
| O=C(O)c1sc2c(ccc3ccccc32)c1Br [CBK018387] | 90.4 |
| C[C@H](NC(=O)N1CCN(C(=O)c2c[nH]c3ccccc23)CC1)C(=O)O [CBK286581] | 84.5 |
| O=C(NCCCN1CCOCC1)c1ccncc1 [CBK264561F] | 110 |
| Cc1nc(-c2cccc(OC(F)F)c2)n(C2CCN(C)CC2)n1 [CBK307382] | 97.1 |
| COc1ccc2[nH]cc(CCNC(=O)c3ccc4[nH]c(=O)[nH]c4c3)c2c1 [CBK122721] | 93.4 |
| Cc1cc(NC(=O)CN(C)Cc2cnn(-c3ccccc3)c2)on1 [CBK305622] | 92.5 |
| O=C(O)c1ccc(CN2C(=O)c3ccc(C(=O)O)cc3C2=O)cc1 [CBK262823] | 93.7 |
| Nc1nnc(C2CCCCC2)s1 [CBK039123] | 84.5 |
| CC1CC1C(=O)NCCc1c[nH]c2cccc(C3(O)CCOCC3)c12 (stereo not drawn) [CBK284840] | 95.7 |
| c1ccc(-c2nc3ccc(Oc4ccc5nc(-c6ccccn6)c(-c6ccccn6)nc5c4)cc3nc2-c2ccccn2)nc1 [CBK261964] | 99.6 |
| O=C1NCCC[C@@H]1NC(=O)[C@H]1CN(C(=O)c2ccccc2)CCN1C(=O)c1cccnc1 [CBK289634] | 108 |
| O=C(c1ccncc1)N(c1ccc2oc3c(c2c1)CCCC3)S(=O)(=O)c1cccc([N+](=O)[O-])c1 [CBK265705] | 106 |
| COc1cc(C=CC(=O)N(C)c2ccccc2C(=O)O)cc(OC)c1OC [CBK296136] | 93.1 |
| Cc1ccc(C#N)c(NCc2ccccc2CN2CCCC2CO)n1 (stereo not drawn) [CBK304076] | 75.5 |

| SMILES | viability at 28.5 h, 10 µM [%] |
| --- | --- |
| NC(=O)c1c(NC(=S)NC(NC(=O)c2ccccc2)C(Cl)(Cl)Cl)sc2c1CCCC2 (stereo not drawn) [CBK261048] | 90.6 |
| Cc1ccc(NC(=O)Cn2cnc3c(=O)n(C)c(=O)n(C)c32)c(O)c1 [CBK267002] | 102 |
| CC(C)(Oc1ccc(Cl)cc1)C(=O)O/N=C(\N)c1ccc(I)cc1 [CBK268760] | 97.2 |
| CC1CCCCN1C(=O)CN1C(=O)N2CCN=C2c2ccccc21 (stereo not drawn) [CBK283921] | 102 |
| CS(=O)(=O)c1ccc(Cn2ccnc(N3CCN(C(=O)C4CCCCC4)CC3)c2=O)cc1 [CBK153771] | 90.3 |
| Nc1ccc(CCNC(=O)c2cnc(-c3ccc(Cl)cc3)c(-c3ccco3)c2)cc1 [CBK036686] | 99.7 |
| Cc1ccc2nc(-c3ccc4c(c3)CCN4S(C)(=O)=O)cn2c1 [CBK285185] | 96.6 |
| CC(C)C(=O)N1CC2(CCN(Cc3cccc(C(F)(F)F)c3)CC2)c2ccccc21 [CBK126716] | 102 |
| O=C(c1cc2ncc(CCO)cn2n1)N1CCC(c2ccccc2Cl)C1 (stereo not drawn) [CBK307266] | 105 |
| C/C(=N\NC(=N)SC1CC(=O)N(c2ccc(C(=O)O)cc2)C1=O)c1cccs1 (stereo not drawn) [CBK262471] | 103 |
| O=[N+]([O-])c1ccccc1OCCCn1cnc2ccccc21 [CBK267820G] | 44.2 |
| COc1ccc(-c2nc(NC(=O)c3cnccn3)cnc2-c2ccc(F)cc2)cc1 [CBK037150] | 104 |
| Nc1nc(SCc2ccc(Cl)cc2)nc2sc3c(c12)CCN(Cc1ccccc1)C3 [CBK263724] | 88.1 |
| Cc1cc(C23CC4CC(CC(C(=O)O)(C4)C2)C3)c(C)cc1C12CC3CC(CC(C(=O)O)(C3)C1)C2 [CBK261734] | 112 |
| COC(=O)Cn1c(-c2ccc(OC)cc2)cc2cccnc21 [CBK282268] | 82.7 |
| COc1ccc(NC(=O)c2nn(-c3nc4ccccc4o3)c3ccccc23)cc1 [CBK048492] | 93.8 |
| CN(CCN1CCCCC1)C(=O)c1c2c(nn1C)CCCC2 [CBK281905] | 102 |
| S=C(NCCC(c1ccccc1)c1ccccc1)NC1CCCCC1 [CBK264007] | 96.3 |
| Cc1ccc(CNC(=O)c2cnoc2-c2ccc(Br)cc2)cc1F [CBK154896] | 93.8 |
| COc1ccccc1CNC(=O)c1cnc2scc(C)n2c1=O [CBK287293] | 102 |
| CC(=O)Nc1ccc(S(=O)(=O)NC2(C(F)(F)F)C(=O)Nc3c2c(=O)[nH]c(=S)n3C2CCCCC2)cc1 (stereo not drawn) [CBK268683] | 97.2 |
| CCOC(=O)c1c(NC(=O)CSc2nc3ccccc3s2)sc2c1CCC2 [CBK263220] | 93 |

| SMILES | viability at 28.5 h, 10 µM [%] |
| --- | --- |
| COc1cccc(CN2CCCC3(C2)NCCc2c3[nH]c3cc(F)ccc23)c1 (stereo not drawn) [CBK039786] | 87.5 |
| O=c1[nH]c(=O)c2cc(S(=O)(=O)NCc3ccccc3CN3CCCC3)ccc2[nH]1 [CBK286395] | 108 |
| O=C(O)c1ccc(CNCCN2CCOCC2)cc1 [CBK287223] | 101 |
| CN1CCN(c2cc(CNC(=O)c3ccnc(Cl)c3)ccn2)CC1 [CBK298275] | 92.4 |
| Cc1ccccc1Cc1cccc(C2CCN(C(=O)c3ccc(F)cc3)CC2)n1 [CBK286140] | 88.4 |
| CS(=O)(=O)Nc1ccccc1C(=O)NCCCN1CCOCC1 [CBK269745] | 112 |
| O=S(=O)(Nc1nnn[nH]1)c1cccc(C(F)(F)F)c1 [CBK062377] | 108 |
| CC(=O)N1C[C@@H]2CCCCN(CCOc3ccccc3)[C@@H]2C1 [CBK285494] | 107 |
| CCOC(=O)CCCCCCC(=O)N1CCN(c2ccc(C(F)(F)F)cc2)CC1 [CBK091327] | 107 |
| CCCCN(C)c1nccnc1-c1cccnc1 [CBK037631] | 99.2 |
| O=C(O)c1cc(NC(=O)c2ccc(NC(=O)c3ccco3)cc2)cc(C(=O)O)c1 [CBK265149] | 111 |
| Cc1ccc2[nH]c(-c3cccc(NC(=O)c4cccc(CN5CCCC5=O)c4)c3)nc2c1 [CBK285838] | 85.8 |
| COc1cccc(-c2cnc3[nH]c(=O)n(Cc4ccc(Cl)cc4)c3n2)c1 [CBK064596] | 111 |
| O[C@H]1[C@H](NCC2CC2)[C@H]2CO[C@H](O2)[C@@H]1N1CCOCC1 [CBK288819] | 86.4 |
| Oc1ccc(C2N(O)C3CCCCC3N2O)cc1 (stereo not drawn) [CBK261715] | 92.8 |
| COCCn1c(CN2CCOCC2)nc2c1c(=O)[nH]c(=O)n2C [CBK269890] | 100 |
| COc1ccc(C2CCCN2S(=O)(=O)c2ccccc2[N+](=O)[O-])cc1OC (stereo not drawn) [CBK295309] | 96.1 |
| COc1ccc(C2C(C(C)=O)=C(O)C(=O)N2CCCC(=O)O)cc1 (stereo not drawn) [CBK263774] | 100 |
| Clc1cnc2nc(NCC3CCCCC3)sc2c1 [CBK067087] | 87.5 |

Same assay, conditions: human, hela cells, % viability, bulk resorufin, single well

| SMILES | viability at 28.5 h, 10 µM [%] |
| --- | --- |
| CCN(CC)CCN/C=C1/C(=O)NC(=O)N(Cc2ccccc2)C1=O [CBK261624] | 88.9 |
| COCCn1cc(C(=O)N2CCN(C)CC2C)c2ccccc21 (stereo not drawn) [CBK305123] | 102 |
